The term IC50 denotes the concentration that inhibits the measured activity by half.

Chain of human MER (528-end) (Q12866 528-999 limits assumed): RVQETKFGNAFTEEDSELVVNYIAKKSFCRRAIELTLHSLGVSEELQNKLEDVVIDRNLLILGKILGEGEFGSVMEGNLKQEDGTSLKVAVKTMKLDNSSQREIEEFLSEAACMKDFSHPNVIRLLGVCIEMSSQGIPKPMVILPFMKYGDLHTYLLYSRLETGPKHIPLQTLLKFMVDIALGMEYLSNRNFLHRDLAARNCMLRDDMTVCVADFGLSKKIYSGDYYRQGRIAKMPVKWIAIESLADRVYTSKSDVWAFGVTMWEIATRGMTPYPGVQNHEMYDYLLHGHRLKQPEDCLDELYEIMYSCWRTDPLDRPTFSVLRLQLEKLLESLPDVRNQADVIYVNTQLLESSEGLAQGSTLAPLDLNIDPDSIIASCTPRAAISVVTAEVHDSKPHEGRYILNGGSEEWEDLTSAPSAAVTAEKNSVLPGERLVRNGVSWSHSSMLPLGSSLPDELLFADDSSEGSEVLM

This experiment concerns the target human MER (528-end) (Homo sapiens (Human), UniProt Q12866). Description: HTRF Kinase Activity Biochemical Assay (KinEASE-TK). The following applies: 10 uM ATP. In outline: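 Recombinant human MER (528-end) phosphorylated biotin-TK peptide substrate, 1 h at room temperature. Reaction stopped with detection buffer containing 0.375 nM Eu3+-cryptate anti-TK antibody and 0.062 uM streptavidin-XL665, 1 h further. Activity taken as HTRF ratio 665/620 nm ×10,000, 340 nm excitation.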
(In general: TR-FRET usually uses a lanthanide donor and a delayed reading to cut background.)
`Cn1cc(-c2cnc(N)c(C(=O)N[C@@H]3CCN(C(=O)c4ccc(-c5cc(F)ccc5Cl)cc4Cl)C3)c2)cn1` [Example 693, (R)-2-amino-N-(1-(2′,3-dichloro-5′-fluoro-[1,1′-biphenyl]-4-carbonyl)pyrrolidin-3-yl)-5-(1-methyl-1H-pyrazol-4-yl)nicotinamide] showed an IC50 of more than 1000 nM.
On to `Nc1ncc(-c2cnn(C3CCNCC3)c2)cc1C(=O)N[C@@H]1CCN(C(=O)c2ccc(-c3ccccc3)cc2)C1` [Example 562, (R)—N-(1-([1,1′-biphenyl]-4-carbonyl)pyrrolidin-3-yl)-2-amino-5-(1-(piperidin-4-yl)-1H-pyrazol-4-yl)nicotinamide], for which the IC50 was 10 to 100 nM.
On to `Cn1cc(-c2cnc(N)c(C(=O)N[C@@H]3CCN(C(=O)c4ccc(I)cc4)C3)c2)cn1` [Example 400, (R)-2-amino-N-(1-(4-iodobenzoyl)pyrrolidin-3-yl)-5-(1-methyl-1H-pyrazol-4-yl)nicotinamide], for which the IC50 is more than 1000 nM.
Molecule `Nc1ncc(-c2cnn(C3CCNCC3)c2)cc1C(=O)N[C@@H]1CCN(Cc2c(F)ccc(F)c2F)C1` [Example 162, (R)-2-amino-5-(1-(piperidin-4-yl)-1H-pyrazol-4-yl)-N-(1-(2,3,6-trifluorobenzyl)pyrrolidin-3-yl)nicotinamide] came in with an IC50 of more than 1000 nM.
For `CC(C)c1ccc(C(=O)N2CC[C@@H](NC(=O)c3cc(-c4cnn(C)c4)cnc3N)C2)cc1` [Example 418, (R)-2-amino-N-(1-(4-isopropylbenzoyl)pyrrolidin-3-yl)-5-(1-methyl-1H-pyrazol-4-yl)nicotinamide] the value was more than 1000 nM; for `Nc1ncc(-c2cnn(C3CCNCC3)c2)cc1C(=O)N[C@@H]1CCN(Cc2cc(F)c(F)cc2F)C1` [Example 157, (R)-2-amino-5-(1-(piperidin-4-yl)-1H-pyrazol-4-yl)-N-(1-(2,4,5-trifluorobenzyl)pyrrolidin-3-yl)nicotinamide], more than 1000 nM.
For `Cn1cc(-c2cnc(N)c(C(=O)N[C@@H]3CCN(C(=O)N[C@H]4CCC[C@@H]4OCc4ccccc4)C3)c2)cn1` [Example 40, 2-amino-N—((R)-1-(((1S,2S)-2-(benzyloxy)cyclopentyl)carbamoyl)pyrrolidin-3-yl)-5-(1-methyl-1H-pyrazol-4-yl)nicotinamide] the value was more than 1000 nM.
For `Cn1cc(-c2cnc(N)c(C(=O)N[C@@H]3CCN(C(=O)Oc4cccc(-c5cnn(CCN6CCOCC6)c5)c4)C3)c2)cn1` [Example 287, 3-(1-(2-morpholinoethyl)-1H-pyrazol-4-yl)phenyl (R)-3-(2-amino-5-(1-methyl-1H-pyrazol-4-yl)nicotinamido)pyrrolidine-1-carboxylate] the value was more than 1000 nM; for `Cn1cc(-c2cnc(N)c(C(=O)N[C@H]3CCN(Cc4ccccc4)C3)c2)cn1` [Example 207, (S)-2-amino-N-(1-benzylpyrrolidin-3-yl)-5-(1-methyl-1H-pyrazol-4-yl)nicotinamide], more than 1000 nM; for `Cn1cc(-c2cnc(N)c(C(=O)N[C@@H]3CCN(C(=O)c4nc5ccccc5[nH]4)C3)c2)cn1` [Example 545, (R)—N-(1-(1H-benzo[d]imidazole-2-carbonyl)pyrrolidin-3-yl)-2-amino-5-(1-methyl-1H-pyrazol-4-yl)nicotinamide], more than 1000 nM.
For the molecule `Cn1cc(-c2cnc(N)c(C(=O)N[C@@H]3CCN(C(=O)Oc4ccc5ccccc5c4)C3)c2)cn1` [Example 103, naphthalen-2-yl (R)-3-(2-amino-5-(1-methyl-1H-pyrazol-4-yl)nicotinamido)pyrrolidine-1-carboxylate], the IC50 was 100 to 1000 nM.
`Cn1cc(-c2cnc(N)c(C(=O)N[C@@H]3CCN(C(=O)c4ccc(Oc5ccc(CN6CCC[C@@H]6CO)cc5)cc4)C3)c2)cn1` [Example 449] gave a 50% inhibitory concentration (IC50) of more than 1000 nM.
In turn, `COC(=O)c1ccccc1OC(=O)N1CC[C@@H](NC(=O)c2cc(-c3cnn(C)c3)cnc2N)C1` [Example 92, 2-(methoxycarbonyl)phenyl (R)-3-(2-amino-5-(1-methyl-1H-pyrazol-4-yl)nicotinamido)pyrrolidine-1-carboxylate] had an IC50 of more than 1000 nM.
As for `Cn1cc(-c2cnc(N)c(C(=O)N[C@@H]3CCN(C(=S)Nc4ccc([N+](=O)[O-])cc4)C3)c2)cn1` [Example 47, (R)-2-amino-5-(1-methyl-1H-pyrazol-4-yl)-N-(1-((4-nitrophenyl)carbamothioyl)pyrrolidin-3-yl)nicotinamide], the IC50 is more than 1000 nM.
For `Cn1cc(-c2cnc(N)c(C(=O)N[C@@H]3CCN(C(=O)c4ccc(-c5ccccc5Br)cc4)C3)c2)cn1` [Example 373, (R)-2-amino-N-(1-(2′-bromo-[1,1′-biphenyl]-4-carbonyl)pyrrolidin-3-yl)-5-(1-methyl-1H-pyrazol-4-yl)nicotinamide] the value was 10 to 100 nM; for `CN(C(=O)c1cc(-c2cnn(C)c2)cnc1N)[C@@H]1CCN(Cc2ccccc2)C1` [Example 623, (R)-2-amino-N-(1-benzylpyrrolidin-3-yl)-N-methyl-5-(1-methyl-1H-pyrazol-4-yl)nicotinamide], more than 1000 nM.
In turn, `Cc1cc(C)cc(NC(=O)N2CC[C@@H](NC(=O)c3cc(-c4cnn(C)c4)cnc3N)C2)c1` [Example 4, (R)-2-amino-N-(1-((3,5-dimethylphenyl)carbamoyl)pyrrolidin-3-yl)-5-(1-methyl-1H-pyrazol-4-yl)nicotinamide] registered a half-inhibitory concentration (IC50) of more than 1000 nM.
Take `Cn1cc(-c2cnc(N)c(C(=O)N[C@@H]3CCN(C(=O)Oc4cccc(-c5ccc(CNC6CNC6)cc5)c4)C3)c2)cn1` [Example 306, 4′-((azetidin-3-ylamino)methyl)-[1,1′-biphenyl]-3-yl (R)-3-(2-amino-5-(1-methyl-1H-pyrazol-4-yl)nicotinamido)pyrrolidine-1-carboxylate]: the IC50 lay within 100 to 1000 nM.
With `CC(C)Cn1cc(-c2cnc(N)c(C(=O)N[C@@H]3CCN(Cc4ccccc4Cl)C3)c2)cn1` [Example 632, (R)-2-amino-N-(1-(2-chlorobenzyl)pyrrolidin-3-yl)-5-(1-isobutyl-1H-pyrazol-4-yl)nicotinamide] the figure was 100 to 1000 nM; with `Nc1ncc(-c2cnn(C3CCNCC3)c2)cc1C(=O)N[C@@H]1CCN(Cc2ccccc2C(F)(F)F)C1` [Example 168, (R)-2-amino-5-(1-(piperidin-4-yl)-1H-pyrazol-4-yl)-N-(1-(2-(trifluoromethyl)benzyl)pyrrolidin-3-yl)nicotinamide], more than 1000 nM; with `Cc1nn(C)c(C)c1-c1ccc(C(=O)N2CC[C@@H](NC(=O)c3cc(-c4cnn(C)c4)cnc3N)C2)cc1` [Example 507, (R)-2-amino-5-(1-methyl-1H-pyrazol-4-yl)-N-(1-(4-(1,3,5-trimethyl-1H-pyrazol-4-yl)benzoyl)pyrrolidin-3-yl)nicotinamide], 100 to 1000 nM.
`Cn1cc(-c2cnc(N)c(C(=O)N[C@@H]3CCN(CCOCc4ccccc4)C3)c2)cn1` [Example 229, (R)-2-amino-N-(1-(2-(benzyloxy)ethyl)pyrrolidin-3-yl)-5-(1-methyl-1H-pyrazol-4-yl)nicotinamide] showed a 50% inhibitory concentration (IC50) of more than 1000 nM.
Take `Nc1ncc(-c2cnn(C3CCNCC3)c2)cc1C(=O)N[C@@H]1CCN(Cc2ccnc(Cl)c2)C1` [Example 631, (R)-2-amino-N-(1-((2-chloropyridin-4-yl)methyl)pyrrolidin-3-yl)-5-(1-(piperidin-4-yl)-1H-pyrazol-4-yl)nicotinamide]: the IC50 was more than 1000 nM.
With `Cn1cc(-c2cnc(N)c(C(=O)N[C@@H]3CCN(Cc4ccccc4Br)C3)c2)cn1` [Example 232, (R)-2-amino-N-(1-(2-bromobenzyl)pyrrolidin-3-yl)-5-(1-methyl-1H-pyrazol-4-yl)nicotinamide] the figure was 100 to 1000 nM.
Molecule `Cn1cc(-c2cnc(N)c(C(=O)N[C@@H]3CCN(C(=O)c4ccc(-c5ccc(Oc6ccc(N)nc6)cc5)cc4)C3)c2)cn1` [Example 813, (R)-2-amino-N-(1-(4′-((6-aminopyridin-3-yl)oxy)-[1,1′-biphenyl]-4-carbonyl)pyrrolidin-3-yl)-5-(1-methyl-1H-pyrazol-4-yl)nicotinamide] had an IC50 of 100 to 1000 nM.
`Cn1cc(-c2cnc(N)c(C(=O)N[C@@H]3CCN(C(=O)c4cccc(-c5ccc(C(=O)N6CCNCC6)cc5)c4)C3)c2)cn1` [Example 465, (R)-2-amino-5-(1-methyl-1H-pyrazol-4-yl)-N-(1-(4′-(piperazine-1-carbonyl)-[1,1′-biphenyl]-3-carbonyl)pyrrolidin-3-yl)nicotinamide] showed an IC50 of more than 1000 nM.
For `Cn1cc(-c2cnc(N)c(C(=O)NC[C@@H]3CCN(C(=O)c4cccc(-c5ccccc5)c4)C3)c2)cn1` [Example 739] the value was more than 1000 nM.
Molecule `Nc1ncc(-c2ccc(CO)cc2)cc1C(=O)N[C@@H]1CCN(C(=O)c2ccc(-c3ccccc3)cc2)C1` [Example 568, (R)—N-(1-([1,1′-biphenyl]-4-carbonyl)pyrrolidin-3-yl)-2-amino-5-(4-(hydroxymethyl)phenyl)nicotinamide] yielded an IC50 of 100 to 1000 nM.
For `Cn1cc(-c2cnc(N)c(C(=O)N[C@@H]3CCN(C(=O)c4ccc(-c5ccccc5CO)cc4)C3)c2)cn1` [Example 349, (R)-2-amino-N-(1-(2′-(hydroxymethyl)-[1,1′-biphenyl]-4-carbonyl)pyrrolidin-3-yl)-5-(1-methyl-1H-pyrazol-4-yl)nicotinamide] the value was 100 to 1000 nM; for `Nc1ncc(-c2cncc(C(=O)O)c2)cc1C(=O)N[C@@H]1CCN(C(=O)c2ccc(-c3ccc(F)cc3Cl)cc2)C1` [Example 587, (R)-6′-amino-5′-((1-(2′-chloro-4′-fluoro-[1,1′-biphenyl]-4-carbonyl)pyrrolidin-3-yl)carbamoyl)-[3,3′-bipyridine]-5-carboxylic acid], 100 to 1000 nM.
`Cn1cc(-c2cnc(N)c(C(=O)N[C@@H]3CCN(C(=O)c4cccc(-c5cccc(C(=O)N6CCNCC6)c5)c4)C3)c2)cn1` [Example 464, (R)-2-amino-5-(1-methyl-1H-pyrazol-4-yl)-N-(1-(3′-(piperazine-1-carbonyl)-[1,1′-biphenyl]-3-carbonyl)pyrrolidin-3-yl)nicotinamide] returned an IC50 of more than 1000 nM.

The values above are taken from US12378224B2 (Dong-A Socio Holdings Co., Ltd., priority 2016, dated 2025).
